Assay results from US20220177891A1, “HIPK INHIBITORS AND METHODS OF USE THEREOF” (Board of Regents, The University of Texas System, priority 2019, published 2022).

How the values were obtained:
[1] = molecular target: T1, HIPK4 (Homo sapiens, UniProt Q8NE63); experiment: HIPK4 kinase inhibition by VIB-MDA compounds (FIG. 5, 6); format: biochemical; conditions: for potency and specificity for HIPK4: Table 1, FIG. 5
T1 sequence (Q8NE63 1-616): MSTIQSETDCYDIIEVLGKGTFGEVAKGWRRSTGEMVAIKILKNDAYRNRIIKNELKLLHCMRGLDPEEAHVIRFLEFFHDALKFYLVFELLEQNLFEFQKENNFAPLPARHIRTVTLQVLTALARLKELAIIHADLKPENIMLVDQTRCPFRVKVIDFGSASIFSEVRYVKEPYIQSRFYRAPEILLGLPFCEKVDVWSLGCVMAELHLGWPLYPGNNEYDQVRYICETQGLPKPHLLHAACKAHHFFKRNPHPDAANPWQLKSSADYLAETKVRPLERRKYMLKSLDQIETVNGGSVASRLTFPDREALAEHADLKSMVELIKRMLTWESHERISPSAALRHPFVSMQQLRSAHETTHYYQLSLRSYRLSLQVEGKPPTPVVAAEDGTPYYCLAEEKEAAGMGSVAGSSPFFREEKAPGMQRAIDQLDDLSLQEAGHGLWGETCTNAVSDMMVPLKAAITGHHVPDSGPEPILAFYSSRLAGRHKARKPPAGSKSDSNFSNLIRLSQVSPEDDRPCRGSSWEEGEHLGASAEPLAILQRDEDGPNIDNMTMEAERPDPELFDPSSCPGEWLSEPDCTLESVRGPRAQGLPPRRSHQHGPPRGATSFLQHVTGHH

[2] = molecular target: T2, Tyro3 (Homo sapiens, UniProt Q06418); experiment: Tyro3 kinase inhibition (FIG. 5); format: biochemical
T2 sequence (Q06418 41-890): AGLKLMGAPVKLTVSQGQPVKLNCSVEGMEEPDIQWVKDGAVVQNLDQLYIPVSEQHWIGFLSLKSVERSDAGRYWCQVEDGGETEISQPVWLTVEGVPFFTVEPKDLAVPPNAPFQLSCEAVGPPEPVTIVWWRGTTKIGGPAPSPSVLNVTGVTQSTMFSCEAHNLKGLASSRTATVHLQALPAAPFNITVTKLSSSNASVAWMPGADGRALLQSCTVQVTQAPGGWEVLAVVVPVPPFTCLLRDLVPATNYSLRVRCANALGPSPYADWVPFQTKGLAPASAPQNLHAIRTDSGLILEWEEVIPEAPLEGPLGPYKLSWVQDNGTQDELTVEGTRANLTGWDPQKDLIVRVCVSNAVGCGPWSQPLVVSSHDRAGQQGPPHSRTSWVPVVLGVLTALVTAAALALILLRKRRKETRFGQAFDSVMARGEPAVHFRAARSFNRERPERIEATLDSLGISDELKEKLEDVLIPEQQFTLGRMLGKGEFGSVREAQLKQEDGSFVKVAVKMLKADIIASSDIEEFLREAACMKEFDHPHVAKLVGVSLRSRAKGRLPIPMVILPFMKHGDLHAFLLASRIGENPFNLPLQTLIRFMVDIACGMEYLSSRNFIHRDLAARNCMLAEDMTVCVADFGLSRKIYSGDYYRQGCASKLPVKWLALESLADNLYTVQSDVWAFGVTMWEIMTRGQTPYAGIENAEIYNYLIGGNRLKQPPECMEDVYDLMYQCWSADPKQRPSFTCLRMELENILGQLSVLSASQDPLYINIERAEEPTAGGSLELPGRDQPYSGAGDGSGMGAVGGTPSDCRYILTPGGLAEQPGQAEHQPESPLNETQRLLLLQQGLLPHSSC

[3] = molecular target: T1, HIPK4; experiment: Western blot of HIPK4 protein level with VIB-MDA compounds (FIG. 9); format: cell-based; set-up: endogenous in cells; context is GI101A and derivative cell lines
Experimental: (§1) Briefly, desired cells were harvested and lysed. The protein concentration in the lysates was quantified using the Bradford method with bovine serum albumin as standard. An equal amount of protein of 49 μg was separated by electrophoresis on SDS-polyacrylamide gels and transferred to PVDF membranes. After blocking with 5% nonfat milk, the membranes were incubated with the primary antibodies overnight at the following dilution: HIPK4 (1:500) and β-actin (1:20000). Subsequently, the membranes were incubated with appropriate secondary antibodies. The immunoreactive bands were visualized using enhanced chemiluminescence, as recommended by the manufacturer.

[4] = molecular target: T3, DDR2 (Tyro10) (Homo sapiens, UniProt Q16832); experiment: DDR2 kinase inhibition by VIB-MDA compounds (FIG. 5, 6B); format: biochemical
T3 sequence (Q16832 22-855): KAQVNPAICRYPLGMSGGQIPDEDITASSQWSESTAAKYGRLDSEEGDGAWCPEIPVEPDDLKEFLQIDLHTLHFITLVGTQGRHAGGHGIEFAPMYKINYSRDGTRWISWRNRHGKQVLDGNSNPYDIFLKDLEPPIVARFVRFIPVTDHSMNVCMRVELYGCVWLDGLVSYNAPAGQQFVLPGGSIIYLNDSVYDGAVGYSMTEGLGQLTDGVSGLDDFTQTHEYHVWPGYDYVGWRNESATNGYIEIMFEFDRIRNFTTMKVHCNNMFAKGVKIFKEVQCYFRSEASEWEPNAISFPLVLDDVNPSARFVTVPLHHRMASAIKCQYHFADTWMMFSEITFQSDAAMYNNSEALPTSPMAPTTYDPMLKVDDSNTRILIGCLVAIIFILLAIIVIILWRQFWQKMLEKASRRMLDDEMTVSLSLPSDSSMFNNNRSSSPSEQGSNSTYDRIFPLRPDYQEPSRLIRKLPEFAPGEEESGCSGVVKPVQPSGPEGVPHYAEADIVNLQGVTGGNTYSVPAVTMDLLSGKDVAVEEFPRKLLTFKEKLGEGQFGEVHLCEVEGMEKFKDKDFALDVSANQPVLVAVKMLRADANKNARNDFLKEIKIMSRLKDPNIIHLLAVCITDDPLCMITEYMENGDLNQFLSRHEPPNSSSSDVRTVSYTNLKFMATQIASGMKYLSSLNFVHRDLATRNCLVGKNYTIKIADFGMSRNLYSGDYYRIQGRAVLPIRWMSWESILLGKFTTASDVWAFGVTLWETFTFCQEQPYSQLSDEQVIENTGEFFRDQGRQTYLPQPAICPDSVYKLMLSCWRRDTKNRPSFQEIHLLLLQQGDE

[5] = Transport into cells; format: cell-based
[6] = molecular target: Breast Tumor Kinase (BRK) (Homo sapiens, UniProt Q13882); experiment: Breast Tumor Kinase inhibition (FIG. 5); format: biochemical
[7] = system: MDA-MB-231 cells overexpressing HIPK4; experiment: Transwell migration of HIPK4-overexpressing MDA-MB-231 cells (FIG. 11A); format: cell-based, human; conditions: MDA-MB-231 cells overexpressing HIPK4, FIG. 11A
Experimental: The in vitro migration and invasion assay was carried out using transwell chamber. Briefly, 0.2-2.0×10^5 cells/ml cells were suspended in serum-free medium with 5% bovine serum albumin and then were placed in the upper compartment, and medium with 5% fetal bovine serum was added in the lower compartment. Following incubation in cell culture incubator for 6-32 h, non-migratory and noninvasive cells on the upper surface were gently removed by a cotton swab. The cells on the bottom of membrane were stained with cell stain solution at room temperature for 10 min. Images of the invading cells were taken with at least three individual fields per chamber by a fluorescent inverted microscope (Olympus IX81 Motorized Inverted Microscope, Japan). The chambers were transferred to an empty well, and 200 μL of Extraction Solution was added to each well. After incubating 10 minutes on an orbital shaker, 100 μL of solution was transferred from each well to a 96-well microtiter plate for measurement under OD 560 nm in a plate reader.
(§2) Cells were plated into 6-well plate and grown for 1-2 days until reaching 70-80% confluence. Transfection of cells with HIPK4 cDNA was performed utilizing FuGENE® HD Transfection reagent. An amount of 2.5 μg of DNA and 7.5 μL of FuGENE® HD reagent were separately pipeted into 140 μL opti-MEM medium; incubate the FuGENE® HD transfection reagent/DNA mixture for 10-15 minutes at room temperature. Then the mixture was applied onto cells for 7 h in cell culture incubator. The transfection was stopped by replacing medium with complete medium. After 48 h, cells were harvest for further analysis.

[8] = system: HIPK and FAK/pFAK; experiment: Western blot of HIPK4-overexpressing triple negative breast cancer cells (FIG. 11B); format: cell-based, human
Experimental: as §2, §1

Sequence of Breast Tumor Kinase (BRK) (Q13882 whole entry, species assumed): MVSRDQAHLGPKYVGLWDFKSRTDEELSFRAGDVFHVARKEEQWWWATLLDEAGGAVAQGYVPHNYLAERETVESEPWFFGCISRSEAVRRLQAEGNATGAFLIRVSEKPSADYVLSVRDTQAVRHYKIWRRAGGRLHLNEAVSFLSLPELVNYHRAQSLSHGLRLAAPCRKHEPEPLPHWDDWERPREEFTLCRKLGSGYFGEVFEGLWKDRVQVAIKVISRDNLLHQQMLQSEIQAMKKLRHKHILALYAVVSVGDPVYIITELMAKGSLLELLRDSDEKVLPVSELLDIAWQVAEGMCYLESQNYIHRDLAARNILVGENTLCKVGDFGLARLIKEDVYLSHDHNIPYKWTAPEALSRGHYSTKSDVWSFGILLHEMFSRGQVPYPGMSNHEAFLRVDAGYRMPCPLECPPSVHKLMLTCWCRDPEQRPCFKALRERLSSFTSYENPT

Row | SMILES | potency for HIPK4 relative to the other VIB-MDA compounds ([1]; FIG. 5) | blocking HIPK4 kinase activity ([1]; FIG. 6) | IC50 ([1]; FIG. 6B) | potency and specificity for HIPK4 [1] | specificity for HIPK4 compared to Sorafenib ([1]; kinase inhibition profile, FIG. 6A) | potency for Tyro3 relative to the other VIB-MDA compounds [2] | inhibition of HIPK4 expression [3] | potency for DDR2 relative to the other VIB-MDA compounds ([4]; FIG. 5) | IC50 ([4]; FIG. 6B, second most inhibited kinase) | transport into cells [5] | potency for BRK relative to the other VIB-MDA compounds [6] | migration from HIPK-overexpression [7] | expression of HIPK and FAK/pFAK [8]
1 | CNC(=O)c1cc(Oc2ccc(NC(=O)c3nc(SC)oc3-c3ccc(F)cc3)cc2)ccn1 [VIB-MDA-002] | highest potency | high efficacy | 15 nM | extremely potent and highly specific for HIPK4 | greatly increased specificity | highest potency | Selective inhibition | highest potency | 100 nM | excellent transport into cells | highest potency | significantly inhibit | significantly inhibit
2 | CNC(=O)c1cc(Oc2ccc(NC(=O)c3nc(SC)[nH]c3-c3ccc(F)cc3)cc2)ccn1 [VIB-MDA-001] |  |  |  | extremely potent and highly specific for HIPK4 |  |  | Selective inhibition |  |  |  |  | significantly inhibit | significantly inhibit
3 | CNC(=O)c1cc(Oc2ccc(NC(=O)c3nc(S(C)(=O)=O)sc3-c3ccc(F)cc3)cc2)ccn1 [VIB-MDA-003] |  |  |  | extremely potent and highly specific for HIPK4 |  |  | Selective inhibition |  |  |  |  | significantly inhibit | significantly inhibit
